Where a name gives a salt, the structure may show the parent alone.
Legend:
[1] = Dynamic Vapor Sorption (physical stability versus relative humidity); assay type: physicochemical
Description: The peaks found are: Wave number (in cm^−1): 3241(m), 2951(w), 2867(w), 1669(m), 1538(m), 1456(w), 1355(m), 1249(m), 1087(w), 979(w), 885(w), 797(w). […] Then 3 mL of heptane were added into the solution. White solid precipitated out. The solid was separated by suction filtration and dried at 40° C. under vacuum overnight. 380 mg of a fumarate salt amorphous form of 2-amino-N-(4-hydroxybicyclo[2.2.2]octan-1-yl)-5-(4-((1R,5S)-3-(tetrahydro-2H-pyran-4-yl)-3-azabicyclo[3.1.0]hexan-1-yl)phenyl)nicotinamide was obtained as a white solid. […] Resulting mixture was stirred at 50° C. for 0.5 hour and a clear solution was obtained. To the solution was slowly added a solution of 695.2 mg in 10 mL of acetone:water (95:5, v/v). Resulting suspension was gradually cooled to 25° C. and was kept stirring for 24 hours. Add 1.5 mL water to the suspension. The mixture was kept stirring at 50° C. for 12 hours and slowly cooled to 25° C. Solid was separated by suction filtration, washed with 10 mL acetone:water (90:10, v/v) once, and exposed to an ambient environment (about 25° C., 50% RH) overnight. […]

[2] = Solubility in aqueous media (25° C., 24 h equilibration); assay type: physicochemical; conditions: pH 9.0 borate buffer/8.6, target concentration 2 mg/mL

Row | Compound | physical stability over relative humidity (DVS) ([1]; 25° C., FIG. 15) | physical stability over relative humidity (DVS) ([1]; 40° C., FIG. 16) | solubility [2]
1 | Nc1ncc(-c2ccc([C@@]34C[C@@H]3CN(C3CCOCC3)C4)cc2)cc1C(=O)NC12CCC(O)(CC1)CC2 [Fumarate salt Modification HA, 2-amino-N-(4-hydroxybicyclo[2.2.2]octan-1-yl)-5-(4-((1R,5S)-3-(tetrahydro-2H-pyran-4-yl)-3-azabicyclo[3.1.0]hexan-1-yl)phenyl)nicotinamide] | physically stable at least from 0% to 90% RH | physically stable at least from 10% to 90% RH | 
2 | Nc1ncc(-c2ccc([C@@]34C[C@@H]3CN(C3CCOCC3)C4)cc2)cc1C(=O)NC12CCC(O)(CC1)CC2 [Free form Modification HA, 2-amino-N-(4-hydroxybicyclo[2.2.2]octan-1-yl)-5-(4-((1R,5S)-3-(tetrahydro-2H-pyran-4-yl)-3-azabicyclo[3.1.0]hexan-1-yl)phenyl)nicotinamide] |  |  | <LOQ

— patent publication US10947218B2, “Aminopyridine derivatives and their use as selective ALK-2 inhibitors” (priority 2016, dated 2021)
